Laboratory results taken from patent US6284523A, “Process for biodegradation of a xenobiotic” (priority 1998, dated 2001).
Read-outs that look alike come from different tables or passages of the source.

Experiments:
[1] = Determination of partition coefficients of phenol between solvent and medium buffer; assay type: physicochemical
Experimental: A stock solution of medium buffer containing 5 g/L of phenol was prepared, and 5 mL samples of the medium buffer were then contacted with 5 mL of solvent using the Mixxor™ contacting system. The contacted samples were then centrifuged, and the organic phase was aspirated and discarded. […] A red colour was developed in the samples, and the absorbance of the solution was measured relative to a blank using a Bausch and Lomb Spectronic 2000™ spectrophotometer. The partition coefficient for phenol in each organic-aqueous system was then be determined by mass balance. Any solvents that formed emulsions with the aqueous phase were eliminated from the solvent screening process, due to the difficulties associated with calculating partition coefficients for these systems.

[2] = system: Pseudomonas putida ATCC 11172; assay: Biodegradation of solvents (consumed as substrate); assay type: cell-based; conditions: Table 1; Yes/No
Experimental: (§1) Pseudomonas putida available under ATCC accession number 11172, an organism known to degrade phenol by the meta pathway (Bayly et al.^17) was used in this Example. The organism was maintained on medium previously described (Fujita et al.^11), containing 5 g/L glucose and 100 mg/L phenol as carbon sources. EDTA was also added to the medium at a 1:1 molar ratio with ferric chloride to prevent the formation of a precipitate. Cultures were grown in 125 mL Erlenmeyer flasks containing 50 mL of maintenance medium in a shaker bath at 30° C. The flasks were allowed to incubate for 36 hours prior to their use as inoculum for fermentation. A total of 160 mL of the cultured medium was centrifuged, the supernatant discarded and the cell fraction resuspended in the remaining 40 mL of medium. The 40 mL aliquot was then used to inoculate the fermentor for the batch and fed batch experiments.
The biodegradability of the solvents was assessed as part of the solvent selection process. 5 mL of each solvent was added to 125 mL Erlenmeyer flasks containing 50 mL of seeded maintenance medium containing 250 mg/L phenol but no glucose. Solvent was not added to one flask, which was used as a control. In addition, 5 mL of corn oil was added to one flask, to serve as a positive control. Flasks were placed on the shaker bath as above for 7 days. The cell density in each flask was measured every 24 hours. The net change in cell density was then compared to the change in cell density seen in the control and the positive control.

[3] = system: Pseudomonas putida ATCC 11172
Experimental: To allow for complete biodegradation of the substrate, the carbon-free medium formulation was doubled in concentration, in order to provide adequate nutrients for the fermentation. The fermentor was initially aerated to 0.25 vvm and agitated at 200 rpm, but during the fermentation aeration was increased to 0.5 vvm, and agitation to 250 rpm, to increase the mass transfer of oxygen to the cells. A dissolved oxygen electrode was used to monitor the level of oxygen in the aqueous phase. The pH of the system was controlled at 6.8 using 1N KOH.
(§3) Samples were taken from the organic and aqueous phases every twelve hours throughout the fermentations. Samples were centrifuged prior to analysis to separate the cell fraction, aqueous phase and organic layer. […] The organic samples were contacted with medium buffer using the Mixxor™ contacting system. The resulting mixture was then centrifuged, and the organic phase aspirated off. Phenol levels in the buffer were then determined as above, and the experimentally determined partition coefficient was used to calculate the concentration of phenol present in the organic phase. Cell density was assessed as described above. Consumption of base was also monitored.

[4] = system: Pseudomonas putida ATCC 11172; remark: listed apart in the source
Experimental: The microorganism used for these experiments was Pseudomonas putida available under ATCC accession number 11172. The organism was maintained in liquid and solid culture, transferred weekly. The maintenance medium formulation used was as previously described (Fujita et al.^11), with 5 g/L glucose and 100 mg/L phenol provided as carbon sources. Cultures were grown in 125 mL flasks containing 50 mL of medium in a shaker bath at 30° C. for 36 hours prior to inoculation of the fermentor. A total of 160 mL of inoculum from 4 flasks was concentrated by centrifugation, the supernatant decanted and the cell fraction resuspended in the remaining 40 mL of medium to prepare the final inoculum.
(§2) Fermentation was carried out in a 2 L New Brunswick Scientific BioFlo reactor modified for aeration with a fritted glass tube. The fermentor was operated at 30° C., agitated at 200 rpm and aerated at 0.25 vvm, based on the aqueous phase volume. The pH was controlled at 6.8 using 2N KOH. The fermentor was heat sterilized with 1 L of medium (containing no carbon source) already in place. The sterilized medium was then inoculated, and 500 mL of the organic solvent, loaded with 4 g of phenol, was added, as depicted in the schematic diagram shown in FIG. 1. A control fermentor was also prepared in the same manner, but with a cell free aqueous phase, to test for possible volatilization of phenol due to air stripping.
Cell density was estimated by measuring the optical density of samples taken from the aqueous phase at 650 nm. Phenol concentrations in the aqueous phase were estimated using the 4-aminoantipyrine method (Der Yang et al.^12) and a Bausch and Lomb Spectronic 2000 spectrophotometer. The samples were centrifuged prior to analysis in order to remove the cell fraction. The concentration of phenol in the organic phase was measured by contacting a sample taken from the organic phase with medium buffer using a Mixxora contacting system. The resulting mixture was centrifuged, the organic phase aspirated, and the buffer analyzed using the 4-aminoantipyrine method, as mentioned above. The amount of phenol present in the organic phase was then calculated by mass balance using an […] partition coefficient.

[5] = system: Pseudomonas putida ATCC 11172; remark: listed apart in the source
Experimental: as §1
The fermentor was prepared as above, but with a second glass sparger added to improve aeration. A propeller was added to the stir shaft of the fermentation vessel, in an attempt to reduce foaming. The fermentation was allowed to progress normally, but when the phenol concentration in the organic phase reached 2 g/L, 250 ml of the organic phase was removed, and spiked with approximately 9 g of phenol. The organic sample was then returned to the reactor, bringing the overall concentration of phenol in the organic phase back to 20 g/L. This was done twice, at 72 hours and at 120 hours. Nutrient spikes (the standard carbon-free medium formulation dissolved in 50 mL of water, instead of 1 L) were also added at 96 hours and at 132 hours, to avoid nutrient depletion in the aqueous phase.
Samples were taken from the organic and aqueous phases every twelve hours throughout the fermentations. Samples were centrifuged prior to analysis to separate the cell fraction, aqueous phase and organic layer. Phenol concentrations in the aqueous phase were assayed using the 4-aminoantipyrine method as described above. The organic samples were contacted with medium buffer using the Mixxor™ contacting system. The resulting mixture was then centrifuged, and the organic phase aspirated off. Phenol levels in the buffer were then determined as above, and the experimentally determined partition coefficient was used to calculate the concentration of phenol present in the organic phase. Cell density was assessed as described above. Consumption of base was also monitored.

[6] = Experimental: as §2
The pH was controlled at 6.8 using 2N KOH.

Pseudomonas putida = conditions: cited from earlier work
[7] = system: Pseudomonas putida ATCC 11172; remark: listed apart in the source
Experimental: as §3

[8] = 28 g fed batch, initial 10 g of phenol

With `CCCCCCCCCCCO` [1-undecanol] the “Partition Coefficient” value [1] was 20.8 and the “Consumed as Substrate” value [2] was “Yes”.
In the case of `CCCCCCCC(C)O` (centres unmarked) [2-nonanol], the “Partition Coefficient” value [1] is reported as 28.3 and the “Consumed as Substrate” value [2] is reported as “No”.
For `CCCCCCCCC(C)=O` [2-decanone], the “Consumed as Substrate” value [2] was “No”.
For `CCCCCCCCCCO` [1-decanol], the “Consumed as Substrate” value [2] was “Yes”.
With `CCCCCCCCCC(C)=O` [2-undecanone] the “Consumed as Substrate” value [2] was “No”.
In the case of `Oc1ccccc1` [phenol], the yield coefficient ([3]; 10 g batch system, cells in aqueous phase only) is reported as 0.15 g/g, the “initial concentration of phenol in the aqueous phase” value (“initial concentration of phenol” below) ([3]; 10 g phenol in organic phase) is reported as “approximately 420 mg/L” and the lag phase ([3]; 10 g phenol, batch) is reported as “about 24 hours”. The “volumetric phenol consumption rate” value ([3]; the batch system, based on aqueous phase volume) was “approximately 135 mg/L-h”, the “initial concentration of phenol” value ([4]; 4 g phenol in 500 mL 2-undecanone, 1 L aqueous) was “approximately 168 mg/L” and the “time to consumption of phenol to exhaustion” value ([4]; 4 g phenol, 2-undecanone, batch) was “over 48 hours”. The initial lag phase ([4]; 4 g phenol, batch) was 12 h, the “volumetric phenol consumption rate” value ([4]; based on aqueous phase volume, 4 g phenol, batch) was “approximately 80 mg/L-h” and the yield coefficient ([4]; cells in aqueous phase only, 4 g phenol) was “approximately 0.21 g cells produced/g phenol consumed”. The yield coefficient ([5]; 28 g fed batch system, cells in aqueous phase only) was 0.12 g/g, the exponential growth phase [5, 8] was 48 h and the lag phase [5, 8] was 24 h. The “lag phase of cell growth for the spikes of phenol” value ([5]; fed batch mode) was “eliminates the lag phase”, the “time to degrade 28 g of phenol” value ([5]; fed batch system) was “about 165 hours” and the volumetric consumption rate ([5]; fed batch system) was 175 mg/L-h. For the same compound, the “time to consumption of the last 10 g of phenol to exhaustion” value ([5]; fed batch, time from start of fermentation) was “under 168 hours”, the “loss of phenol to volatilization” value ([6]; cell free fermentor, 48 hours, Example 1) was “no loss of phenol to volatilization” and the “loss of phenol due to air stripping” value ([6]; control (cell-free) fermentor, Example 2) was “no phenol was lost due to air stripping”. The “typical yield coefficient on phenol” value (Pseudomonas putida; Hill et al., g cells/g phenol) was 0.52 ± 0.08 g/g, the yield coefficient (Pseudomonas putida; Hill et al., printed without unit in Example 1) was 0.52+/-0.08 and the “typical inhibitory value of phenol” value (Pseudomonas putida; Kotturi et al.) was 500 mg/L. The “volumetric phenol consumption rate” value (Pseudomonas putida; highest literature value, batch system, Fujita et al.) was 37.5 mg/L-h, the yield coefficient ([7]; 4 g phenol batch, cells in aqueous phase only) was 0.20 g cells/g phenol and the “initial concentration of phenol” value ([7]; 4 g phenol in organic phase) was 168 mg/L. It also gave an initial lag phase ([7]; 4 g phenol, batch) of 12 h.
In the case of `CCCCCCCCCO` [1-nonanol], the “Consumed as Substrate” value [2] is reported as “Yes”.
With `CCCCCCCCC(C)O` (centres unmarked) [2-decanol] the “Partition Coefficient” value [1] was 22.6 and the “Consumed as Substrate” value [2] was “No”.
